Tests used:
Type in all cases: biochemical
HDAC6 enzyme = target: T1, HDAC6 enzyme (Homo sapiens, UniProt Q9UBN7); assay: HDAC6 enzyme inhibitory assay (HDAC-Glo I/II Assay kit); details: wells without enzyme = 100% inhibition; for inhibition at 1 µM: read-out: HDAC6 inhibitory rate (%) (1 μM)
T1 construct: transducing full length HDAC1 and HDAC6 genes into Sf-9 insect cells; GST; purchased SignalChem; host or cells: Sf-9 insect cells
T1 sequence (Q9UBN7 1-1215): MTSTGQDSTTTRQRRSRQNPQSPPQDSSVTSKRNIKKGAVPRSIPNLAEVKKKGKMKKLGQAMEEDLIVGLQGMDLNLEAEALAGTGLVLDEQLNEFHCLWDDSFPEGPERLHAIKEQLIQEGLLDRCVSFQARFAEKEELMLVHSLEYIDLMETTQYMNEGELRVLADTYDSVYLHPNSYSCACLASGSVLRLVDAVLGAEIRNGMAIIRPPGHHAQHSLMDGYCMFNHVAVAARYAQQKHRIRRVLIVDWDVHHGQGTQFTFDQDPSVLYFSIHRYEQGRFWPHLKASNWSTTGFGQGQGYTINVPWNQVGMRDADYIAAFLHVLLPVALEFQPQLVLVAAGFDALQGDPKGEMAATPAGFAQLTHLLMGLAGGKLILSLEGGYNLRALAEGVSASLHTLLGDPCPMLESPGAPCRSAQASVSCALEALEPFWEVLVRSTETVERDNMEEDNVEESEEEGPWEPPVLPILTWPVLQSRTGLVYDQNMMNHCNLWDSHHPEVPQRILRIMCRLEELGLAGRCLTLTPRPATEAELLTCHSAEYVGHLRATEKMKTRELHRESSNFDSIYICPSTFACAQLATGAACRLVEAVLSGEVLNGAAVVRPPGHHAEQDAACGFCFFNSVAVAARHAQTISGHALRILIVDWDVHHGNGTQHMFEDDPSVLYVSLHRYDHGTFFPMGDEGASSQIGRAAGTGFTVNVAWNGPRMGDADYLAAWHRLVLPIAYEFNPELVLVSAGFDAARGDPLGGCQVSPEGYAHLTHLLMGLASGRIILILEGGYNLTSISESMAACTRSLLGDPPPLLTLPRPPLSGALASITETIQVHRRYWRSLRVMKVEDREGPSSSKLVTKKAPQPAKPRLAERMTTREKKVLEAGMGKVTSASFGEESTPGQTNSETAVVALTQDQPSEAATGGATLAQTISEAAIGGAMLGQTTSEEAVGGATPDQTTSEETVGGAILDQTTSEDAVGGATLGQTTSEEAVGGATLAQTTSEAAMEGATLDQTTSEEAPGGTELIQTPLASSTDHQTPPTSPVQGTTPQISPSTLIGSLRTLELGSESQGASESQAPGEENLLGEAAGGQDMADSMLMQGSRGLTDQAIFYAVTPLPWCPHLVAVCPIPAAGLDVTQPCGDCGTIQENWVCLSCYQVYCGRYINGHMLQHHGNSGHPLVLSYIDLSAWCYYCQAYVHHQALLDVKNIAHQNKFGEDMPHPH
Protocol: (§1) HDAC1/6 Enzyme Inhibitory Assay
(§2) HDAC1 enzyme and HDAC6 enzyme each prepared by transducing full length HDAC1 and HDAC6 genes into Sf-9 insect cells and purifying by GST affinity column were purchased from SignalChem. Using these enzymes, HDAC1 and/or HDAC6 enzyme inhibitory activities of the compound of the present invention were evaluated. Enzymes were used after preserved at −70° C. HDAC1 or HDAC6 enzyme inhibitory activity of the compound of the present invention was measured using HDAC-Glo™ I/II Assay kit (Promega) according to the following experimental method. The test compound diluted with assay buffer (24 mM Tris-HCl (pH 7.5), 1 mM MgCl2, 0.35 mM KCl, 135 mM NaCl, 0.6 mM Glutathione, 0.01% Tween-20) was added to a 384-well plate by each 2 μL. Then, HDAC1 or HDAC6 enzyme solution diluted with assay buffer was added thereto by each 4 μL, and the plate was incubated at room temperature for 60 min. After incubated, HDAC substrate-Developer solution prepared according to Promega protocol attached to the assay kit was added to the 384-well plate by each 2 μL, and the enzyme reaction was started. After reacting at room temperature for 20 min, luminescence level was measured using plate reader Envision (PerkinElmer). The inhibitory activity of each compound was calculated as a relative activity value when luminescence level in wells without enzyme is considered as 100% inhibition.

HDAC9 enzyme = target: T2, HDAC9 enzyme (Homo sapiens, UniProt Q9UKV0); assay: HDAC9 enzyme inhibitory assay (HDAC-Glo class IIa); details: wells without enzyme = 100% inhibition; for inhibition at 1 µM: read-out: HDAC9 inhibitory rate (%) (1 μM)
T2 construct: transducing full length HDAC9 gene into Sf-9 insect cells; made in house; host or cells: Sf-9 insect cells
T2 sequence (Q9UKV0 whole entry, species assumed): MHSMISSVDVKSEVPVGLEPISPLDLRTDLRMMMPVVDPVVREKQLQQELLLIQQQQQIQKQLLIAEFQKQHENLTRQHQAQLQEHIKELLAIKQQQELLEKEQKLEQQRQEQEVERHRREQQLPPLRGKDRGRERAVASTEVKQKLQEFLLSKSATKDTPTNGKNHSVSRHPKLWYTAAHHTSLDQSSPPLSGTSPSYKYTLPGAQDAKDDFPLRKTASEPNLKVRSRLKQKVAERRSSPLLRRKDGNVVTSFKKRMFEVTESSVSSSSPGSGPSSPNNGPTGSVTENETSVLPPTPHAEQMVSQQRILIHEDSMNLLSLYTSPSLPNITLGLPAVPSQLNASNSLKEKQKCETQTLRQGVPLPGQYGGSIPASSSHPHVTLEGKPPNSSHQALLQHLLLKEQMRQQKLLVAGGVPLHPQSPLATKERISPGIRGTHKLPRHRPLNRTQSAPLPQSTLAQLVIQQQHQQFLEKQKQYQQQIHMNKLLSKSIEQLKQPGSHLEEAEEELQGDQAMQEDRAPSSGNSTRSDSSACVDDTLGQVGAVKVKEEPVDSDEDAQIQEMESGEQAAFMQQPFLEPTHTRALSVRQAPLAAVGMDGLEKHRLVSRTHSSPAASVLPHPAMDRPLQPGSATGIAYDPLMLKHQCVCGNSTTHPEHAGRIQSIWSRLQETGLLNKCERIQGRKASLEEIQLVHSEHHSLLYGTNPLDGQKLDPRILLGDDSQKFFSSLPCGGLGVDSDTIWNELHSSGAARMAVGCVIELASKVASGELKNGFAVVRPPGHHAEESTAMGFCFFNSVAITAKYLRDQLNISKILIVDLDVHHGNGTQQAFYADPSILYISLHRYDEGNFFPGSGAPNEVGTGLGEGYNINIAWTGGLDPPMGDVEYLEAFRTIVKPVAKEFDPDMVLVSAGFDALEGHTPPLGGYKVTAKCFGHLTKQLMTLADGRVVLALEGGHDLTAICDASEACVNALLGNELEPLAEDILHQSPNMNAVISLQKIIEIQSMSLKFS
Protocol: HDAC9 Enzyme Inhibitory Assay
Enzyme was prepared by transducing full length HDAC9 gene into Sf-9 insect cells and purifying by Ni-NTA affinity column, and HDAC9 enzyme inhibitory activity was evaluated. Enzymes were used after preserved at −70° C. HDAC9 enzyme inhibitory activity of the test compound was measured using HDAC-Glo class IIa (Promega) according to the following experimental method. The test compound diluted with assay buffer (24 mM Tris-HCl (pH 7.5), 1 mM MgCl2, 0.35 mM KCl, 135 mM NaCl, 0.6 mM Glutathione, 0.01% Tween-20) was added to a 384-well plate by each 2 μL. Then, HDAC9 enzyme solution diluted with assay buffer was added thereto by each 2 μL, and the plate was incubated at room temperature for 60 min. After incubated, HDAC substrate-Developer solution prepared according to Promega protocol was added to the 384-well plate by each 4 μL, and the enzyme reaction was started. After reacting at room temperature for 20 min, luminescence level was measured using plate reader Envision (PerkinElmer). The inhibitory activity of each compound was calculated as a relative activity value when luminescence level in wells without enzyme is considered as 100% inhibition.

HDAC1 enzyme = target: T3, HDAC1 enzyme (Homo sapiens, UniProt Q13547); assay: HDAC1 enzyme inhibitory assay (HDAC-Glo I/II Assay kit); details: wells without enzyme = 100% inhibition; for inhibition at 1 µM: read-out: HDAC1 inhibitory rate (%) (1 μM)
T3 construct: transducing full length HDAC1 and HDAC6 genes into Sf-9 insect cells; GST; purchased SignalChem; host or cells: Sf-9 insect cells
T3 sequence (Q13547 whole entry): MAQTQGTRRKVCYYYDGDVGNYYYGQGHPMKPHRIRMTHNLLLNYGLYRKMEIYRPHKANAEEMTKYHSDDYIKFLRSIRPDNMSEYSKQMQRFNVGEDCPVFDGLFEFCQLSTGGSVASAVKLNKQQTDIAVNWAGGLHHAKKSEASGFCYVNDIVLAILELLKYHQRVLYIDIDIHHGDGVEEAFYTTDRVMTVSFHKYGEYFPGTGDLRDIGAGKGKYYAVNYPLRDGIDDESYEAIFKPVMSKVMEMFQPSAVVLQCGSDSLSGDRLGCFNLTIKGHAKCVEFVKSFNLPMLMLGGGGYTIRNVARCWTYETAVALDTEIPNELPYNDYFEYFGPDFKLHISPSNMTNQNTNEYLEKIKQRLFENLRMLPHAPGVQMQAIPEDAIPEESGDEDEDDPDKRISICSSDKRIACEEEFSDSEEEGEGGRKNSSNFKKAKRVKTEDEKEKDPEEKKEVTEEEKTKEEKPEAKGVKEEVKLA
Protocol: as §1, §2

| SMILES | inhibition at 1 µM (HDAC6 enzyme) [%] | inhibition at 1 µM (HDAC9 enzyme) [%] | inhibition at 1 µM (HDAC1 enzyme) [%] | HDAC6 inhibitory rate (%) (1 μM) (HDAC6 enzyme) | HDAC9 inhibitory rate (%) (1 μM) (HDAC9 enzyme) | HDAC1 inhibitory rate (%) (1 μM) (HDAC1 enzyme) |
| --- | --- | --- | --- | --- | --- | --- |
| N#Cc1cccc(C(=O)NCC2CCCCN2C(=O)Nc2ccc(-c3noc(C(F)(F)F)n3)cc2)c1 (stereo not drawn) [Example 20, 2-(((3-cyanobenzoyl)amino)methyl)-N-(4-(5-(trifluoromethyl)-1,2,4-oxadiazol-3-yl)phenyl)piperidine-1-carboxamide] | 4 | 95 | 32 | – | – | – |
| Cc1ccccc1C(=O)NCC1CCCCN1C(=O)Nc1ccc(-c2noc(C(F)(F)F)n2)cc1 (stereo not drawn) [Example 10, 2-(((2-methylbenzoyl)amino)methyl)-N-(4-(5-(trifluoromethyl)-1,2,4-oxadiazol-3-yl)phenyl)piperidine-1-carboxamide] | 5 | 84 | 4 | – | – | – |
| O=C(NCC1CCCCN1C(=O)Nc1ccc(-c2noc(C(F)(F)F)n2)cc1)c1ccnc(O)c1 (stereo not drawn) [Example 58] | – | – | – | 3 | 87 | 25 |
| O=C(NCC1CCCCN1C(=O)Nc1ccc(-c2noc(C(F)(F)F)n2)cc1)c1cccc(F)c1 (stereo not drawn) [Example 5, 2-(((3-fluorobenzoyl)amino)methyl)-N-(4-(5-(trifluoromethyl)-1,2,4-oxadiazol-3-yl)phenyl)piperidine-1-carboxamide] | 4 | 95 | 35 | – | – | – |
| O=C(NCC1CCCCN1C(=O)Nc1ccc(-c2noc(C(F)(F)F)n2)cc1)c1ccccc1 (stereo not drawn) [Example 2, 2-((benzoylamino)methyl)-N-(4-(5-(trifluoromethyl)-1,2,4-oxadiazol-3-yl)phenyl)piperidine-1-carboxamide] | 10 | 90 | 80 | – | – | – |
| O=C(NCC1CCCCN1C(=O)Nc1ccc(-c2noc(C(F)(F)F)n2)cc1)C1CCCCC1 (stereo not drawn) [Example 50] | – | – | – | 7 | 95 | 79 |

Now from value to compound, other results behind:

| inhibition at 1 µM (HDAC6 enzyme) [%] | inhibition at 1 µM (HDAC9 enzyme) [%] | inhibition at 1 µM (HDAC1 enzyme) [%] | SMILES | HDAC6 inhibitory rate (%) (1 μM) (HDAC6 enzyme) | HDAC9 inhibitory rate (%) (1 μM) (HDAC9 enzyme) | HDAC1 inhibitory rate (%) (1 μM) (HDAC1 enzyme) |
| --- | --- | --- | --- | --- | --- | --- |
| 3 | 71 | 8 | Cn1nc(C(=O)NCC2CCCCN2C(=O)Nc2ccc(-c3noc(C(F)(F)F)n3)cc2)c2ccccc21 (stereo not drawn) [Example 42, 1-methyl-N-((1-((4-(5-(trifluoromethyl)-1,2,4-oxadiazol-3-yl)phenyl)carbamoyl)piperidin-2-yl)methyl)-1H-indazole-3-carboxamide] | – | – | – |
| 3 | 93 | 20 | O=C(NCC1CCCCN1C(=O)Nc1ccc(-c2noc(C(F)(F)F)n2)cc1)c1ccc2nccn2c1 (stereo not drawn) [Example 45, N-((1-((4-(5-(trifluoromethyl)-1,2,4-oxadiazol-3-yl)phenyl)carbamoyl)piperidin-2-yl)methyl)imidazo[1,2-a]pyridine-6-carboxamide] | – | – | – |
| 11 | 94 | 93 | O=C(Cc1cccs1)NCC1CCCCN1C(=O)Nc1ccc(-c2noc(C(F)(F)F)n2)cc1 (stereo not drawn) [Example 46, 2-(((2-thienylacetyl)amino)methyl)-N-(4-(5-(trifluoromethyl)-1,2,4-oxadiazol-3-yl)phenyl)piperidine-1-carboxamide] | – | – | – |
| 5 | 90 | 20 | Cc1cccc(C(=O)NCC2CCCCN2C(=O)Nc2ccc(-c3noc(C(F)(F)F)n3)cc2)c1 (stereo not drawn) [Example 11, 2-(((3-methylbenzoyl)amino)methyl)-N-(4-(5-(trifluoromethyl)-1,2,4-oxadiazol-3-yl)phenyl)piperidine-1-carboxamide] | – | – | – |
| 6 | 89 | 17 | O=C(NCC1CCCCN1C(=O)Nc1ccc(-c2noc(C(F)(F)F)n2)cc1)Nc1ccccc1 (stereo not drawn) [Example 54, 2-(((phenylcarbamoyl)amino)methyl)-N-(4-(5-(trifluoromethyl)-1,2,4-oxadiazol-3-yl)phenyl)piperidine-1-carboxamide] | – | – | – |

Reference: patent US10406146B2, “Heterocyclic compound” (TAKEDA PHARMACEUTICAL COMPANY LIMITED, priority 2015, dated 2019)
